Converted amounts (≈) assume the structure as drawn.
What was measured:
[1] = test system: E. faecalis; assay: Susceptibility testing (MIC, modified NCCLS method); assay type: cell-based, Enterococcus faecalis; settings: E. faecalis (7)
Method in brief: (§1)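 Readout OD600 increase. Compounds (aqueous or DMSO stocks) serially diluted 2-fold across 20 concentrations, then inoculated with bacterial broth culture to final ~1-1.5×10^6 cells/ml; screening-adapted NCCLS microdilution.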

[2] = test system: E. aerogenes; assay: as above; assay type: cell-based, Enterobacter aerogenes; settings: E. aerogenes (5)
Method in brief: as §1

[3] = test system: K. pneumoniae; assay: as above; assay type: cell-based, Klebsiella pneumoniae; settings: K. pneumoniae (5)
Method in brief: as §1

[4] = test system: S. epidermidis; assay: as above; assay type: cell-based, Staphylococcus epidermidis
Method in brief: as §1

[5] = test system: Vancomycin-resistant E. faecalis or E. faecium; assay: as above; assay type: cell-based, Enterococcus faecalis, Enterococcus faecium; settings: VRE (5)
Protocol: (§2) The NCCLS (National Committee for Clinical Laboratory Standards) method to determine MIC's of antimicrobial compounds was modified for high-throughput screening. All stocks of tested compounds were prepared in either water or in dimethylsulfoxide (DMSO), depending on the solubility. […] Briefly 20 2-fold serial dilutions of testing compounds from the highest concentration were made in a 384-well microtiter plate. Each well was inoculated with testing bacteria in broth to a final concentration of approximately 1-1.5×10^6 cells/ml. Bacterial growth was determined by the increase of optical density at 600 nm using a microplate reader (Tecan SpectraFluor Plus).

[6] = test system: H. influenzae; assay: as above; assay type: cell-based, Haemophilus influenzae; settings: H. influenzae (4)
Protocol: as §2

[7] = test system: Gram-negative species; assay: MIC comparison with reference antibiotics, Gram-negative species; assay type: cell-based
Protocol: as §2

[8] = test system: S. aureus clinical isolates; assay: MIC by agar dilution, recent clinical isolates (UCSD Medical Center); assay type: cell-based, Staphylococcus aureus; settings: MSSA (14)
Protocol: Growth of all 14 isolates of MSSA was inhibited by Compound (9) at the lowest tested concentration (0.08 μg/ml) (See Table 6, below).

[9] = test system: E. coli/TEM-1; assay: Detection of triclosan released from Compound (9) in bacteria; assay type: cell-based, Escherichia coli; settings: E. coli/TEM-1, after five minutes, 100 μM Compound (9)
Protocol: E coli N and β-lactamase expressing E. coli/TEM-1 were treated with Compound (9) under the condition described in Example 15. Aliquots of culture were sampled at 0, 5 and 15 minutes. The amount of Compound (9) and triclosan were analyzed by HPLC.
Overnight cultures of both wild-type Escherichia coli N and β-lactamase producing strain Escherichia coli/TEM-1 were diluted 100 times with fresh LB medium and cells were grown for 4 hours at 37° C. (shaking at 230 rpm). Cells were then diluted with fresh LB medium containing 100 μM Compound (9) until the OD600 reached 0.2. Aliquots of the culture were sampled at different timed intervals and the cells were pelleted by centrifugation at 10,000×g for 2 minutes at 4° C. The supernatant was removed and combined with 500 μl acetonitrile. The pelleted bacterial cells were resuspended in 100 μl 133 Phosphate Buffer (GIBCO-BRL, pH8.0) and subjected to 3 cycles of freeze-thawing, followed by addition of 500 μl acetonitrile. Both pellet extracts and supernatant were centrifuged at 10,000×g for 2 minutes at 4° C. 550 μl of the resultant supernatant was transferred into a new Eppendorf tube and vacuum-dried. Dried pellets were resuspended in 50 μl H2O and 100 μl acetonitrile, 75 μl of which was analyzed by HPLC.

[10] = test system: S. aureus (ATCC#700260); assay: Bactericidal assay; assay type: cell-based; settings: 0.6 μg/ml
Protocol: Compound (9) was added in log-phase S. aureus (ATCC#700260) and incubated at 37° C. The final concentration of cells at hour 0 was 1.3×10^6 cells/ml, and Compound (9) was 0.6 μg/mL. […]
Overnight broth cultures of S. aureus (ATCC#700260) were diluted 100 times into liquid medium and allowed to grow to exponential phase (OD600=0.6). Next the bacteria were diluted into fresh medium to give a working concentration of 10^6 cells/ml. Compound (9) was added to a final concentration of 0.6 μg/ml, and the suspension was incubated at 37° C. […] The samples were diluted at 10^−3×, 10^−4× or 10^−5× fold, and plated onto agar plates. The plates were incubated for 24 hours at 37° C. to obtain a viable cell count.

[11] = test system: UDP-glucuronosyltransferase; assay: Glucuronidation assay; assay type: in vitro ADME, human
Protocol: Assays were conducted as outlined in Example 15, using 100 μM Compound (9), triclosan or cephalothin incubated with 100 μg human liver microsome at 37° C. for 1 hour. The reactants were analyzed on TLC plate, and glucuronidated compounds were visualized by MolecularDynamics Storm 820.
Glucuronidation assay was performed based on modified procedure from Bansal and Gessner (1980) Anal. Biochem. 109:321-329. Reactions were performed in 50 mM Tris buffer, pH 7.6, containing 10 mM MgCl2, ImM UDPGA, 0.04 μCi of ^14C-UDPGA, 0.1 mM substrate, and 100 μg human liver microsome. The final volume was 100 μL. Reactions were incubated at 37° C. for one hour and the reactants extracted with 200 μL of 100% ethanol. The protein was removed by centrifugation at 12,000×g for 5 minutes in an Eppendorf centrifuige. The supernatant was dried and resuspended in 30 μL of 100% methanol and spotted on a Whatman glass-backed linear k TLC plate. Chromatography was performed in a mixture of 1-butanol/acetone/acetic acid/water (35:35:10:20). The TLC plate was then dried and exposed to phosphor imager overnight, then monitored by imaging (MolecularDynamics Storm 820).

[12] = E. aerogenes, E. cloacae and K. pneumoniae

Compound `O=C(Cc1cccs1)N[C@@H]1C(=O)N2C(C(=O)O)=C(COc3cc(Cl)ccc3Oc3ccc(Cl)cc3Cl)CS[C@H]12` [Compound 9, 3-(2-(2,4-Dichlorophenoxy)-5-chlorophenoxy)methyl-7-(2-thienylacetamido)-3-cephem-4-carboxylic acid] has an MIC range [1] of 8000 to 16000 ng/mL, an MIC ([1]; Enterococcus faecalis, read-out: GM* MIC (geometric mean)) of 8000 ng/mL (≈ 12800 nM) and an MIC range [2] of 500 to 8000 ng/mL. For the same compound, the MIC ([2]; Klebsiella aerogenes, read-out: GM* MIC (geometric mean)) was 3360 ng/mL (≈ 5370 nM), the MIC range [3] was 980 to 3910 ng/mL and the MIC ([3]; Klebsiella pneumoniae, read-out: GM* MIC (geometric mean)) was 1960 ng/mL (≈ 3130 nM). The MIC range ([4]; S. epidermidis (5)) was 0.015 to 500 ng/mL, the “GM* MIC (geometric mean)” value ([4]; S. epidermidis (5), listed as Comp. (9)) was <4 ng/mL and the “fold more active than vancomycin” value ([4]; S. epidermidis, geometric mean MIC) was 435 fold. For the same compound, the MIC ([4]; Staphylococcus epidermidis, S. epidermidis (5), read-out: GM* MIC (geometric mean)) was 4 ng/mL (≈ 6.39 nM), the MIC ([5]; Enterococcus, read-out: GM* MIC (geometric mean)) was 10300 ng/mL (≈ 16500 nM) and the MIC range [5] was 8000 to 16000 ng/mL. For the same compound, the MIC range [6] was 7.5 to 61 ng/mL, the MIC ([6]; Haemophilus influenzae, read-out: GM* MIC (geometric mean)) was 15 ng/mL (≈ 24 nM) and the “fold less active than imipenem” value [7, 12] was 4 fold. For the same compound, the “fold more active than cephalothin or ampicillin” value [7, 12] was “at least 33 fold”, the “fold stronger than ampicillin and cephalothin” value ([7]; M. catarrhalis and H. influenzae, geometric mean MIC) was “at least 1000 fold” and the MIC range [8] was ≤ 0.08 µg/mL. For the same compound, the MIC range ([8]; listed as Comp. (9)) was 0.08-0.08 μg/ml, the MIC50 ([8]; Staphylococcus aureus) was 80 ng/mL (≈ 128 nM) and the MIC90 ([8]; Staphylococcus aureus) was 80 ng/mL (≈ 128 nM). For the same compound, the “Compound (9) hydrolyzed producing an equimolar amount of triclosan” value [9] was “approximately 80%”, the “decrease of the number of viable cells” value ([10]; 6 hours incubation) was 100 fold and the “decrease of the number of viable cells compared with time 0” value ([10]; 24 hour incubation) was 10,000 fold. The “glucuronidation by human liver microsome” value [11] was “not a substrate of UDP-glucuronosyltransferase”.

Reference: patent US20020115642A1, “Beta-lactam antibiotics” (priority 2000, published 2002)
